Series [1] is described as follows: Powder X-ray diffraction of commercial batches after accelerated storage. The conditions noted are these: 3 commercial batches, 6 months of accelerated storage conditions (40° C.). It counts as physicochemical. The protocol: In this example, powder X-ray diffraction spectra of crystalline epirubicin hydrochloride of type I and type II were obtained. Powder X-ray diffraction spectra were measured using a Rigaku Cu Anode X-ray Diffractometer (MiniFlex). The conditions for analysis of the samples was as follows:
FIGS. 16, 18 and 20 illustrate the X-Ray Diffraction spectra of the mentioned above 3 commercial batches, undergone 6 months of Accelerated storage conditions (40° C.).

The nature of series [2]: Thermal stability study under accelerated storage conditions (HPLC assay, doxorubicinone quantity, total impurities). It counts as physicochemical. The protocol: The type II crystalline epirubicin hydrochloride obtained in Example 1 and type I crystalline epirubicin hydrochloride obtained in reference Example 3 were each kept at a temperature 40° C. for six months, thereby simulating accelerated storage conditions. The thermal stability was investigated and measured by studying the following parameters: (1) assay (HPLC method), (2) doxorubicinone quantity (doxorubicinone, an aglycone of epirubicin, is the major epirubicin degradation product), and (3) total impurities.

For the molecule `COc1cccc2c1C(=O)c1c(O)c3c(c(O)c1C2=O)C[C@@](O)(C(=O)CO)C[C@@H]3OC1CC(N)C(O)C(C)O1.Cl` (stereo partly drawn) [epirubicin hydrochloride], in series [1], the “thermal stability by X-Ray Diffraction spectra” value is reported as “thermally stable”. In addition, in series [2] (concluded from the 40° C. storage study, compared with type I), the shelf life entry is “longer than the shelf life of type I crystalline epirubicin hydrochloride”. Further, the thermal stability entry in series [2] (kept at 40° C. for six months, compared with type I crystalline epirubicin hydrochloride) is listed as “much greater thermal stability than type I crystalline epirubicin hydrochloride”.
